From patent publication US5538977A, “3-Substituted-7-[3-(imidazol-1-yl)phenyl]-pyrazolo[1,5-a]pyrimidines” (American Cyanamid Company, priority 1995, dated 1996)

What was measured:
[1] = Protection against clonic seizures caused by pentylenetetrazole in rats; assay type: in vivo, rat; conditions: pentylenetetrazole 23 mg/kg i.v. at 30 or 60 min
Description: The anti-anxiety and anticonvulsant properties of the novel compounds of the present invention have been established in a test which indicates anxiolytic activity by the measure of protection from convulsions resulting from the administration of pentylenetetrazole. Single or graded dose levels of the test compounds were administered orally or intraperitoneally in a 2% starch vehicle, containing 0.5% v/v polyethylene glycol and one drop of Polysorbate 80 to groups of at least 4 rats. At 30 or 60 minutes, the rats were treated intravenously with pentylenetetrazole at a dose of 23 mg/kg of body weight. This dose is estimated to cause clonic seizures in 99% of unprotected rats. It has Been reported [R. T. Hill and D. H. Tedeschi, "Animal Testing and Screening Procedures in Evaluating Psychotropic Drugs" in "An Introduction to Psychopharmacology",Eds. R. R. Rech and K. E. Moore, Raven Press, N.Y., pp 237-288 (1971)]that there is a high degree of correlation between antagonism of pentylenetetrazole seizures in rats and anti-anxiety or anticonvulsant effects in higher warm-blooded animals.

[2] = Nonconditioned passive avoidance (conflict) test in rats; assay type: in vivo, rat (Wistar strain); conditions: 25 mg/kg oral or i.p., 30 to 60 min, active if number of shocks received is significantly higher than control group by Mann-Witney U test
Description: Another test which has been used to assess antianxiety effects is a nonconditioned passive avoidance procedure described by [J. R. Vogel, B. Beer and D. E. Clody, "A Simple and Reliable Conflict Procedure for Testing Anti-Anxiety Agents", Psychopharmacologia, 21, 1-7(1971)]. A conflict situation is induced in rats by a modification of this method.
Groups of 6 naive, Wistar strain rats, weighing 200-240 g each were deprived of water for 48 hours and food for 24 hours. The test compounds were administered in single or graded, oral or intraperitoneal doses, suspended in a 2% starch vehicle containing 0.5% v/v polyethylene glycol and one drop of polysorbate 80. Control animals received the vehicle alone. At 30 to 60 minutes each rat was placed in an individual plexiglass chamber. Water was available ad libitum from a tap located in the rear of the chamber. A 0.7 milliampere DC shocking current was established between the stainless steel grid floor and the tap. After 20 licks of nonshocked drinking, a shock was delivered for 2 seconds and then further shocks were delivered on a ratio of one shock for 2 seconds for every 20 licks. This was continued for a total of 3 minutes. The number of shocks taken by each rat during the 3 minute interval was recorded and compared to a control group. […]

[3] = tested on: brain-specific receptors of rats (3H-benzodiazepine binding); assay: Inhibition of the binding of 3H-benzodiazepine to brain-specific receptors of rats; design: species or system rat (Wistar strain); conditions: rat cortex P2-fraction; 3H-diazepam 1.5 nM or 3H-flunitrazepam 1.0 nM; pH 7.4; 30 min in ice; test concentration not given
[4] = Rattus norvegicus, 25 mg/kg oral or i.p., read-out: % of Rats Protected

SMILES	responders at 25 mg/kg [1, 4]	Nonconditional Passive Avoidance Test result [2]	% Inhibition [3]	responders at 3.1 mg/kg ([1]; Rattus norvegicus, 3.1 mg/kg oral or i.p., read-out: % of Rats Protected)	% Inhibition (result in words) [3]	% of Rats Protected (result in words) ([1]; 25 mg/kg oral or i.p.)	% of Rats Protected (result in words) ([1]; 6.25 mg/kg oral or i.p.)
Cc1nccn1-c1cccc(-c2ccnc3c(C(=O)c4ccco4)cnn23)c1 [Example 7, 2-furanyl[7-[3-(2-methyl-1H-imidazol-1-yl)phenyl]pyrazolo[1,5-a]pyrimidin-3-yl]methanone compd. with dichloromethane (100:3)]	25%	active	101%	–	–	–	–
Cc1nccn1-c1cccc(-c2ccnc3c(C(=O)c4cccs4)cnn23)c1 [Example 10, [7-[3-(2-methyl-1H-imidazol-1-yl)-phenyl]pyrazolo[1,5-a]pyrimidin-3-yl]-2-thienyl-methanone]	100%	active	99%	–	–	–	–
Cc1nccn1-c1cccc(-c2ccnc3c(C(=O)c4ccccc4)cnn23)c1 [Example 1, [7-[3-(2-Methyl-1H-imidazol-1-yl)phenyl]pyrazolo[1,5-a]pyrimidin-3-yl]phenylmethanone compound with dichloromethane (20:1;)]	100%	active	98%	–	–	–	–
Cc1cn(-c2cccc(-c3ccnc4c(C(=O)c5cccs5)cnn34)c2)cn1 [Example 8, [7-[3-(4-methyl-1H-imidazol-1-yl)-phenyl]pyrazolo[1,5-a]pyrimidin-3-yl]-2-thienyl-methanone]	75%	active	75%	–	–	–	–
c1cc(-c2ccnc3ccnn23)cc(-n2ccnc2)c1 [Example 6, 7-[3-(1H-imidazol-1-yl)-phenyl]pyrazolo[1,5-a]pyrimidine]	0%	inactive	72%	–	–	–	–
O=C(c1cccs1)c1cnn2c(-c3cccc(-n4ccnc4)c3)ccnc12 [Example 11, [7-[3-(1H-imidazol-1-yl)phenyl]pyrazolo[1,5-a]pyrimidin-3-yl]-2-thienyl-methanone]	50%	inactive	100%	–	–	–	–
Cc1nccn1-c1cccc(-c2ccnc3c(C#N)c(N)nn23)c1.Cl [Example 19, 2-amino-7-[3-(2-methyl-1H-imidazol-1-yl)phenyl]pyrazolo-[1,5-a]pyrimidine-3-carbonitrile monohydrochloride]	–	active	–	50%	–	–	–
CCOC(=O)c1cnn2c(-c3cccc(-n4ccnc4C)c3)ccnc12 [Example 21, ethyl 7-[3-(2-methyl-1H-imidazol-1-yl)phenyl]pyrazolo[1,5-a]pyrimidine-3-carboxylate]	0%	inactive	–	–	inactive	–	–
O=C(c1ccncc1)c1cnn2c(-c3cccc(-n4ccnc4)c3)ccnc12 [Example 17, [7-[3-(1H-imidazol-1-yl)-phenyl]pyrazolo[1,5-a]pyrimidin-3-yl]-4-pyridinylmethanone]	–	active	90%	–	–	inactive	–
N#Cc1cnn2c(-c3cccc(-n4ccnc4)c3)ccnc12 [Example 3, 7-[3-(1H-imidazol-1-yl)phenyl]-pyrazolo[1,5-a]pyrimidine-3-carbonitrile]	100%	active	44%	–	–	–	–
Cc1nccn1-c1cccc(-c2ccnc3ccnn23)c1 [Example 13, 7-[3-(2-methyl-1H-imidazol-1-yl)-phenyl]pyrazolo[1,5-a]pyrimidine]	50%	active	–	–	–	–	–
Cc1cn(-c2cccc(-c3ccnc4c(C(=O)c5ccco5)cnn34)c2)cn1 [Example 9, 2-furanyl[7-[3-(4-methyl-1H-imidazol-1-yl)phenyl]pyrazolo[1,5-a]pyrimidin-3-yl]methanone compd. with dichloromethane (20:1)]	50%	active	98%	–	–	–	–
CCc1nccn1-c1cccc(-c2ccnc3c(C(=O)c4ccccc4)cnn23)c1 [Example 15, [7-[3-(2-ethyl-1H-imidazol-1-yl)-phenyl]pyrazolo[1,5-a]pyrimidin-3-yl]-phenylmethanone]	–	active	98%	–	–	–	active
O=C(c1ccco1)c1cnn2c(-c3cccc(-n4ccnc4)c3)ccnc12 [Example 5, 2-furanyl[7-[3-(1H-imidazol-1-yl)-phenyl]-pyrazolo[1,5-a]pyrimidin-3-yl]methanone]	100%	active	72%	–	–	–	–
Cc1nccn1-c1cccc(-c2ccnc3c(C#N)cnn23)c1 [Example 2, 7-[3-(2-methyl-1H-imidazol-1-yl)-phenyl]pyrazolo[1,5-a]pyrimidine-3-carbonitrile compd. with dichloromethane 20:1]	75%	inactive	88%	–	–	–	–
Cc1cn(-c2cccc(-c3ccnc4c(C(=O)c5ccccc5)cnn34)c2)cn1 [Example 14, [7-[3-(4-methyl-1H-imidazol-1-yl)-phenyl]pyrazolo[1,5-a]pyrimidin-3-yl]-phenylmethanone compd. with dichloromethane (20:1)]	100%	active	93%	–	–	–	–
Cc1nccn1-c1cccc(-c2ccnc3c(Cl)cnn23)c1 [Example 12, 3-chloro-7-[3-(2-methyl-1H-imidazol-1-yl)phenyl]pyrazolo[1,5-a]pyrimidine compd. with dichloromethane (20:1)]	100%	active	–	–	–	–	–
O=C(c1ccccc1)c1cnn2c(-c3cccc(-n4ccnc4)c3)ccnc12 [Example 4, [7-[3-(1H-imidazol-1-yl)phenyl]pyrazolo[1,5-a]pyrimidin-3-yl]phenylmethanone]	100%	inactive	94%	–	–	–	–
Cc1cn(-c2cccc(-c3ccnc4c(C#N)cnn34)c2)cn1 [Example 20, 7-[3-(4-methyl-1H-imidazol-1-yl)-phenyl]pyrazolo[1,5-a]pyrimidine-3-carbonitrile]	0%	inactive	–	–	–	–	–
